Measurements: patent US6057135A, “Process for manufacturing D-tagatose” (Kraft Foods, Inc., priority 1992, dated 2000)

Experiments:
L-arabinose isomerase [1] = conditions: cited from earlier work; for affinity of the isomerase for the sugar: Yamanaka and Wood, 1966
L-arabinose isomerase [2] = molecular target: T1, L-arabinose isomerase (Lactiplantibacillus pentosus, UniProt Q6UA74); assay: L-arabinose isomerase activity assay (cysteine-carbazole ketose determination), enzyme from Lactobacillus pentosus ATCC 8041; format: biochemical; conditions: for % Activity with activator (None = 100): metal ion activator, bioconversion of D-galactose; for Enzyme Activity: 10 minutes, 0.1 M L-arabinose or 0.2 M D-galactose as substrate; for total activity, Present Invention Data / activity (10 min.), Present Invention Data: substrate as labelled, propagation 24 hours, 37° C., pH 6.5, BYF 100 medium; for activity (10 min.), Present Invention Data: per g cell mass
T1 construct: whole cells, sonicated cell-free extract or immobilized, from L-arabinose-induced culture
T1 sequence (Q6UA74 1-474): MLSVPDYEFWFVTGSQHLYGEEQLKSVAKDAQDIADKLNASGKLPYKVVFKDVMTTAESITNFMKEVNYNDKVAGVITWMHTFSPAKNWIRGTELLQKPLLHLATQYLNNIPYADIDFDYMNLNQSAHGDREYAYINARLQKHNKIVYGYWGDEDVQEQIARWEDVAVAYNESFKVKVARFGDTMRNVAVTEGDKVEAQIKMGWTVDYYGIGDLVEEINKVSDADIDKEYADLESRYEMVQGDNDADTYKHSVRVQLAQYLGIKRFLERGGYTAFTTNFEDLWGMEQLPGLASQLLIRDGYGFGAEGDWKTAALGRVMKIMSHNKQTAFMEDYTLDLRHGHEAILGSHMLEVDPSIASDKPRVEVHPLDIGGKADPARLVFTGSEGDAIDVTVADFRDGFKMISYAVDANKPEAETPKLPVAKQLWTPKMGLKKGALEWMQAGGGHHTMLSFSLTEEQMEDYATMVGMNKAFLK
Experimental: The activity of L-arabinose isomerase can be assayed based on the appearance of keto-pentose (L-ribulose) or keto-hexose (D-tagatose) after incubation in the presence of the substrate aldo-pentose (L-arabinose) or aldo-hexose (D-galactose), respectively. The keto-pentose or keto-hexose can be measured colorimetrically utilizing cysteine-carbazole sulfuric acid as a reagent. The cysteine-carbazole method is described in, Zacharias Dische, "Color Reaction of Ketoses with Carbazole and Sulfuric Acid", Methods in Carbohydrate Chemistry (1962) page 481 [132]. Samples should be analyzed in duplicate, utilizing one sample as a blank to correct for substances which may interfere with the calorimetric ketose determination.
For purposes of this specification, one unit of L-arabinose isomerase activity is defined as that amount of enzyme which is required to produce one micromole of L-ribulose or D-tagatose from the respective substrates, L-arabinose or D-galactose, following ten minutes of incubation under assay conditions.
Following 24 hours of propagation, the cell mass was harvested and washed with a phosphate or maleate buffer at pH 6.5. The L-arabinose isomerase was extracted from the harvested cells by sonication.
To 1.0 ml of the bioconversion reaction medium (using a dilution factor if needed) the following is added:
0.2 ml of cystein hydrochloride (1.5% in water);
6.0 ml 75% sulfuric acid (450 ml conc. sulfuric acid+190 ml water); and
0.2 ml of 0.12% alcohol solution of carbazole (0.12 gram carbazole in 100 ml 95% ethanol).
The test tubes are incubated for 10 minutes at 57° C. and optical density (O.D.) is read at 540. The D-galactose substrate is used as a blank for reference.
A series of bioconversions were conducted with varied parameters to determine optimum conditions for Lactobacillus pentosus L-arabinose isomerase.

L-arabinose isomerase [3] = assay: L-arabinose isomerase bioconversion of D-galactose to D-tagatose, enzyme from Arthrobacter sp. ATCC 21920; format: biochemical; conditions: for D-TAGATOSE / O.D. (X - B): 1.67 M D-galactose, 60° C., 120 min.
Experimental: The cultures were screened based on cell propagation on medium #1 of Example 3 in the presence of L-arabinose as a carbon source.
Cells of Arthrobacter sp. ATCC 21920 were propagated on medium #1 of Example 3 in the presence of L-arabinose as a carbon source. Optimum pH, temperature, metal ion and metal ion concentration were evaluated on the cell extract containing L-arabinose isomerase as summarized below.
In the following tests, sample B was comprised of 0.8 ml. D-galactose and 0.2 ml. water and sample X was comprised of 0.8 ml. D-galactose and 0.2 ml. enzyme. The dilution factor for the optical density (O.D.) reading was 200×.

L-arabinose isomerase [4] = molecular target: T2, L-arabinose isomerase (Bacillus amyloliquefaciens, UniProt A0A9P1JJ98); assay: L-arabinose isomerase bioconversion of D-galactose to D-tagatose, enzyme from Bacillus amyloliquefaciens IFO 3022; format: biochemical; conditions: for D-TAGATOSE / O.D. (X - B): 1.67 M D-galactose, 60° C., 120 min.
T2 construct: crude enzyme
T2 sequence (A0A9P1JJ98 1-499): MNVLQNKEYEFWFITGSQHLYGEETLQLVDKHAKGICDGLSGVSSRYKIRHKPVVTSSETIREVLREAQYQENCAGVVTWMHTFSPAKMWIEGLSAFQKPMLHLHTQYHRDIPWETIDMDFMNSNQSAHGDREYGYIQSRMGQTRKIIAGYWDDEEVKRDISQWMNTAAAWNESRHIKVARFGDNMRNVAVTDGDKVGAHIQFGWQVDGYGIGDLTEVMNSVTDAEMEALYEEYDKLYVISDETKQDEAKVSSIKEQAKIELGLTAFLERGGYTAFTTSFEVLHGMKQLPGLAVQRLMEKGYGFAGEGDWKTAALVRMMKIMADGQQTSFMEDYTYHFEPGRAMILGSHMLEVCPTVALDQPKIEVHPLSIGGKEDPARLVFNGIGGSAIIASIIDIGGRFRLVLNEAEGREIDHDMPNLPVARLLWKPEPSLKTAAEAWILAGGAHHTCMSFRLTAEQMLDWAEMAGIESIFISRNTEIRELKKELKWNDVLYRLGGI
Experimental: Bacillus amyloliquefaciens (previously known as Bacillus subtilis, IFO 3022, was evaluated as a source of L-arabinose isomerase. Cells of the culture were propagated on the same medium as used in Example 1 in the presence of L-arabinose as a carbon source. Optimum pH, temperature, metal ion and metal ion concentration were evaluated as summarized below.
In the following tests, sample B was comprised of 0.8 ml. D-galactose and 0.2 ml. water and sample X was comprised of 0.8 ml. D-galactose an 0.2 ml. enzyme. The dilution factor for the optical density (O.D.) reading was 200×. (The cystein carbazole method was used for the D-tagatose assay.)

[5] = system: L-arabinose-L-ribulose-isomerase; conditions: Simpson, 1958; cited from earlier work
[6] = at about 25° C.; cited from earlier work
L-arabinose isomerase [7] = molecular target: T3, L-arabinose isomerase (Mycolicibacterium smegmatis, UniProt Q9RHG2); conditions: Izumori et al., 1978; cited from earlier work
T3 construct: L-arabinose isomerases from Mycobacterium smegmatis induced by L-arabinose and D-galactose; host or cells: Mycobacterium smegmatis
T3 sequence (Q9RHG2 whole entry): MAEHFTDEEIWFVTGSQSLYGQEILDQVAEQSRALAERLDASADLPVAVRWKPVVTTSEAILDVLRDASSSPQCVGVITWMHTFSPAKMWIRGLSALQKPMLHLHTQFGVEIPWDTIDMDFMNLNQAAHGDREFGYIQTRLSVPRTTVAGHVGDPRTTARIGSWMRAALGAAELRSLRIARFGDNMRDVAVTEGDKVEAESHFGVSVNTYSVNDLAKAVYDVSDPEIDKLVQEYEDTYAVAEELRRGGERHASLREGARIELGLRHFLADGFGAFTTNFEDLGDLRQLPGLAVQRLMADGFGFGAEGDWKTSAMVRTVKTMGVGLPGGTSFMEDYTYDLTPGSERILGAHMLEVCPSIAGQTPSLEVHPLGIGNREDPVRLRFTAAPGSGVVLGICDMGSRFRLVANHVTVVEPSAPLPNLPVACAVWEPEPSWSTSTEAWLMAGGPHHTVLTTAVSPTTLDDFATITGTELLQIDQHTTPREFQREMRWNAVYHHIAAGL

[8] = 0.005 M metallic ion, O.D. 540, dilution 200×

## C[C@@H](O)[C@H](O)[C@H](O)[C@@H](O)C=O [D-fucose]
L-arabinose isomerase [1]
  affinity of the isomerase for the sugar: low affinity

## [Mg] [Magnesium]
L-arabinose isomerase [2]
  % Activity with activator (None = 100): 141%
L-arabinose isomerase [3]; 0.005 M metallic ion
  D-TAGATOSE: 0.036 M
L-arabinose isomerase [3]; [8]
  O.D. (X - B): 0.7890
L-arabinose isomerase [4]; 0.005 M metallic ion
  D-TAGATOSE: 0.005 M
L-arabinose isomerase [4]; [8]
  O.D. (X - B): 0.1048

## [Fe+2] [Ferrous]
L-arabinose isomerase [2]
  % Activity with activator (None = 100): 200%
L-arabinose isomerase [2]; range 1 MM-10 MM
  % Activity over activator range: 123-250%
L-arabinose isomerase [3]; 0.005 M metallic ion
  D-TAGATOSE: 0.037 M
L-arabinose isomerase [3]; [8]
  O.D. (X - B): 0.8030
L-arabinose isomerase [4]; 0.005 M metallic ion
  D-TAGATOSE: 0.020 M
L-arabinose isomerase [4]; [8]
  O.D. (X - B): 0.4438

## [Ca] [Calcium]
L-arabinose isomerase [2]
  % Activity with activator (None = 100): 143%
L-arabinose isomerase [3]; 0.005 M metallic ion
  D-TAGATOSE: 0.033 M
L-arabinose isomerase [3]; [8]
  O.D. (X - B): 0.7107
L-arabinose isomerase [4]; 0.005 M metallic ion
  D-TAGATOSE: 0.009 M
L-arabinose isomerase [4]; [8]
  O.D. (X - B): 0.1802

## O=C[C@H](O)[C@@H](O)[C@@H](O)CO [L-arabinose, reference compound]
L-arabinose isomerase [2]; 35° C.
  Enzyme Activity: 24.6 u/ml.
L-arabinose isomerase [2]; 60° C.
  Enzyme Activity: 68.1 u/ml.
L-arabinose isomerase [2]
  total activity, Present Invention Data: 4,220 u/L.
  activity (10 min.), Present Invention Data: 425 u/g.
L-arabinose isomerase [1]
  affinity of the isomerase for the sugar: high affinity
L-arabinose isomerase [1]; substrate as labelled, propagation 24 hours, 37° C.
  total activity, Published Data: 525 u/L.
L-arabinose isomerase [1]; substrate as labelled, propagation 24 hours, 37° C., per g cell mass
  activity (10 min.), Published Data: 350 u/g.

## [Fe+3] [Ferric]
L-arabinose isomerase [3]; 0.005 M metallic ion
  D-TAGATOSE: 0.037 M
L-arabinose isomerase [3]; [8]
  O.D. (X - B): 0.8003
L-arabinose isomerase [4]; 0.005 M metallic ion
  D-TAGATOSE: 0.018 M
L-arabinose isomerase [4]; [8]
  O.D. (X - B): 0.3817

## [Zn+2] [Zinc]
L-arabinose isomerase [2]
  % Activity with activator (None = 100): 110%
L-arabinose isomerase [3]; 0.005 M metallic ion
  D-TAGATOSE: 0.012 M
L-arabinose isomerase [3]; [8]
  O.D. (X - B): 0.2544
L-arabinose isomerase [4]; 0.005 M metallic ion
  D-TAGATOSE: 0.007 M
L-arabinose isomerase [4]; [8]
  O.D. (X - B): 0.1596

## O=C[C@H](O)[C@@H](O)[C@@H](O)[C@H](O)CO [D-galactose]
L-arabinose isomerase [2]; 35° C.
  Enzyme Activity: 0.07 u/ml.
L-arabinose isomerase [2]; 60° C.
  Enzyme Activity: 0.90 u/ml.
L-arabinose isomerase [2]; crude enzyme, L. pentosus
  Km (D-galactose), as %: 20%
L-arabinose isomerase [2]
  total activity, Present Invention Data: 395 u/L.
  activity (10 min.), Present Invention Data: 45 u/g.
[5]
  substrate quality for L-arabinose-L-ribulose-isomerase: slow
L-arabinose isomerase [1]; Nakamatu, Biochim. Biophys. Acta 178
  activity of L-arabinose isomerase on the sugar: slight
L-arabinose isomerase [1]
  affinity of the isomerase for the sugar: low affinity
L-arabinose isomerase [3]; D-galactose as a substrate, 10 min. incubation
  L-arabinose isomerase activity: 21 U/g/10 min.
L-arabinose isomerase [3]; crude enzyme, Arthrobacter
  Km (D-galactose), as %: 15%
[6]
  maximum solubility in water: about 70 % by weight
L-arabinose isomerase [7]
  substrate of the isomerase: not a substrate of the isomerase
L-arabinose isomerase [4]; crude enzyme, B. amylo.
  Km (D-galactose), as %: 12%

## [Co+2] [Cobalt]
L-arabinose isomerase [2]
  % Activity with activator (None = 100): 200%
L-arabinose isomerase [3]; 0.005 M metallic ion
  D-TAGATOSE: 0.050 M
L-arabinose isomerase [3]; [8]
  O.D. (X - B): 1.0764
L-arabinose isomerase [4]; 0.005 M metallic ion
  D-TAGATOSE: 0.005 M
L-arabinose isomerase [4]; [8]
  O.D. (X - B): 0.0970

## [Mn+2] [Manganese]
L-arabinose isomerase [2]
  % Activity with activator (None = 100): 177%
L-arabinose isomerase [3]; 0.005 M metallic ion
  D-TAGATOSE: 0.044 M
L-arabinose isomerase [3]; [8]
  O.D. (X - B): 0.9574
L-arabinose isomerase [3]; manganese ion 0.001 M
  D-TAGATOSE: 0.041 M
  O.D. (X - B): 0.8919
L-arabinose isomerase [3]; manganese ion 0.003 M
  D-TAGATOSE: 0.035 M
  O.D. (X - B): 0.7600
L-arabinose isomerase [3]; manganese ion 0.005 M
  D-TAGATOSE: 0.040 M
  O.D. (X - B): 0.8848
L-arabinose isomerase [3]; manganese ion 0.007 M
  D-TAGATOSE: 0.042 M
  O.D. (X - B): 0.9057
L-arabinose isomerase [3]; manganese ion 0.009 M
  D-TAGATOSE: 0.051 M
  O.D. (X - B): 1.1175
L-arabinose isomerase [3]; manganese ion 0.011 M
  D-TAGATOSE: 0.043 M
  O.D. (X - B): 0.9333
L-arabinose isomerase [3]; manganese ion 0.013 M
  D-TAGATOSE: 0.049 M
  O.D. (X - B): 1.0753
L-arabinose isomerase [4]; 0.005 M metallic ion
  D-TAGATOSE: 0.035 M
L-arabinose isomerase [4]; [8]
  O.D. (X - B): 0.7610
L-arabinose isomerase [4]; manganese ion 0.001 M
  D-TAGATOSE: 0.036 M
  O.D. (X - B): 0.7723
L-arabinose isomerase [4]; manganese ion 0.003 M
  D-TAGATOSE: 0.030 M
  O.D. (X - B): 0.6441
L-arabinose isomerase [4]; manganese ion 0.005 M
  D-TAGATOSE: 0.031 M
  O.D. (X - B): 0.6815
L-arabinose isomerase [4]; manganese ion 0.007 M
  D-TAGATOSE: 0.031 M
  O.D. (X - B): 0.6678
L-arabinose isomerase [4]; manganese ion 0.009 M
  D-TAGATOSE: 0.030 M
  O.D. (X - B): 0.6591
L-arabinose isomerase [4]; manganese ion 0.011 M
  D-TAGATOSE: 0.032 M
  O.D. (X - B): 0.7007
L-arabinose isomerase [4]; manganese ion 0.013 M
  D-TAGATOSE: 0.032 M
  O.D. (X - B): 0.6851
